US20220125885A1, “GLUCAGON ANALOG AGONISTS AND METHODS OF USING THE SAME” (Eli Lilly and Company, priority 2019, published 2022)
Where a SMILES comes first, the peptide text is derived from it. Where no end group is shown, it is not given here. [ ]: non-standard residue; d: D form. 4Pal = N[C@@H](Cc1ccncc1)C(=O)O; Dab = NCC[C@H](N)C(=O)O; Aib = CC(C)(N)C(=O)O

Columns and labels:
[1] = target: T1, human GIP receptor (hGIP-R) (Homo sapiens, UniProt P48546); test: cAMP functional activity assay, hGIP-R HEK-293 cells; format: cell-based; details: for Emax at 9.95 µM: HEK293, percent of response to 10 nM GIP(1-42)NH2, Examples at 9.95 μM, read-out: Emax hGIPR; for EC50: in the presence of FBS and BSA, read-out: cAMP EC50 hGIPR
T1 construct: expressed in transfected cells; host or cells: HEK-293 clonal cell line
T1 sequence (P48546 22-466): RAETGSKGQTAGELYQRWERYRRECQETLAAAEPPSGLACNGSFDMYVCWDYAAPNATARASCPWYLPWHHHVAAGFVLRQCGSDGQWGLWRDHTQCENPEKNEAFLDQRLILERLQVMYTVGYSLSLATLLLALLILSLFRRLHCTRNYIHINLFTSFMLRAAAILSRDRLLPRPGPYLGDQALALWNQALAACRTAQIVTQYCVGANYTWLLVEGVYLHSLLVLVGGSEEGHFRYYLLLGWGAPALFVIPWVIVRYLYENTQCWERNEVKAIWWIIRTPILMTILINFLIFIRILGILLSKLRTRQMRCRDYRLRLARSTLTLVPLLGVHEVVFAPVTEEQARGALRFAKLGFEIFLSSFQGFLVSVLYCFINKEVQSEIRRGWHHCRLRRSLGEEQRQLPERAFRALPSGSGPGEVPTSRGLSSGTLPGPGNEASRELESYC
Procedure: (§1) After a sixty-minute incubation at room temperature, the resulting increase in intracellular cAMP is quantitatively determined using a cAMP Dynamic 2 HTRF Assay Kit (62AM4PEJ; CisBio; Codolet, FR). Briefly, cAMP levels within the cell are detected by adding a cAMP-d2 conjugate in cell lysis buffer (10 μl) followed by an anti-cAMP-Eu3+-Cryptate antibody, also in cell lysis buffer (10 μl). […] A relative EC50 value and percent top (Emax) are derived by non-linear regression analysis using the percent maximal response vs. the concentration of peptide added, fitted to a four-parameter logistic equation.

[2] = target: T2, human GLP-1 receptor (hGLP-1R) (Homo sapiens, UniProt P43220); test: cAMP functional activity assay, hGLP-1R HEK-293 cells; format: cell-based; details: HEK293; percent of response to 10 nM GLP-1(7-36)NH2; mean ± SEM
T2 construct: expressed in transfected cells; host or cells: HEK-293 clonal cell line
T2 sequence (P43220 24-463): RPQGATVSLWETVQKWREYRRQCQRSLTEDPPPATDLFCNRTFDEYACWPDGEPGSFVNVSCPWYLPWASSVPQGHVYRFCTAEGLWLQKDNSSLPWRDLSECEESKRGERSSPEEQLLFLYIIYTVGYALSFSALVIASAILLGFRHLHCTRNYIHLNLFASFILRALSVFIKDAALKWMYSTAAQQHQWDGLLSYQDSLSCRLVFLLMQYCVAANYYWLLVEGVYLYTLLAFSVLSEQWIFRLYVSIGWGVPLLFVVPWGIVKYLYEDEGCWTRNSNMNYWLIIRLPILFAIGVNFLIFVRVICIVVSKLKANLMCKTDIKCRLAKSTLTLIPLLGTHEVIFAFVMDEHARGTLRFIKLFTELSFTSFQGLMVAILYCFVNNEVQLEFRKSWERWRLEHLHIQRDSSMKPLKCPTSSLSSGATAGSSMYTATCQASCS

[3] = tested on: CD8+ T cell-depleted peripheral blood mononuclear cells (CD4+ T cells); test: CD4+ T cell assay (immunogenicity); format: cell-based, human; details: Cell Division Index; positive donors only
Procedure: 1. CD4+ T Cell Assay: to assess the propensity for a clinical immunogenic response to the G compounds of Examples 1-4, CD8+ T cell-depleted peripheral blood mononuclear cells (PBMC's) are prepared and labeled with carboxyfluorescein diacetate succinimidyl ester (CFSE; Invitrogen) from a cohort of 10 healthy donors with diverse human leukocyte antigen (HLA) class II haplotypes. Each donor is tested in triplicate with 2.0 mL media control, keyhole limpet haemocyanin (KLH; 0.33 μM), and the compounds of Examples 1-4 (10 μM). Cultures are incubated for 7 days at 37° C. with 5% CO2. On day 7, samples are analyzed by flow cytometry using a BD LSR II Fortessa (Becton Dickinson; Franklin Lakes, N.J.), equipped with a high throughput sampler (HTS). Data is analyzed using FlowJo® Software (FlowJo, LLC/TreeStar; Ashland, Oreg.).
Protein therapeutics that induce less than 30% positive response in the CD4+ T cell proliferation assay are associated with a low risk of immunogenicity.

in vivo = details: male, Yucatan miniature swine, pig, sc, 10 ug/kg
Procedure: 1. […] The compounds and an analog as an internal standard are extracted from […] by antibody or protein precipitations. The intact mass of the compounds are detected by a Q Exactive® Orbitrap® Mass Spectrometer (Thermo Fisher Scientific; Waltham, Mass.). 2. […] Blood is collected at pre-dose, 2, 5, 10, 15, 20, 25, 30, 45, 60, 75, 90, 120 and 150 minutes post-dose, and plasma is obtained for pharmacokinetic characterization. […] Blood is collected at pre-dose, 2, 5, 10, 15, 20, 25, 30, 45, 60, 75, 90, 120 and 150 minutes postdose, and plasma is obtained for pharmacokinetic characterization.

hGCGR = target: T3, hGCGR (Homo sapiens, UniProt P47871); test: cAMP functional activity assay, hGCGR HEK-293 cells; format: cell-based; details: HEK293; percent of response to 1 nM Glucagon; mean ± SEM
T3 construct: expressed in transfected cells; host or cells: HEK-293 clonal cell line
T3 sequence (P47871 26-477): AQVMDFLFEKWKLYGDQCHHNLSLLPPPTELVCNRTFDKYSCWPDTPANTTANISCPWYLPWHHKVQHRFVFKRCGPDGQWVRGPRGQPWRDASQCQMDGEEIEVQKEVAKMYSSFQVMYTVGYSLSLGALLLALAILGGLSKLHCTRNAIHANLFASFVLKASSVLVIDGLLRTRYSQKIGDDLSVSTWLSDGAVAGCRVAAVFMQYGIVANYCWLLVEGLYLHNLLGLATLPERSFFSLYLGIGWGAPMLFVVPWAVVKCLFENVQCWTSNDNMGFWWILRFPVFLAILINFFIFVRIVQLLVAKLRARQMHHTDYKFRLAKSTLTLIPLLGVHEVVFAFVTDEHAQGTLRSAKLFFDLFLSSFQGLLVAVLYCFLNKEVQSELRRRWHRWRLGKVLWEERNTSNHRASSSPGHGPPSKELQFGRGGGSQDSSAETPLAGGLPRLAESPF
Procedure: as §1

human GLP-2 receptor = target: T4, human GLP-2 receptor (human, UniProt O95838 1-553); test: cell-based or functional assay
T4 sequence (looked up): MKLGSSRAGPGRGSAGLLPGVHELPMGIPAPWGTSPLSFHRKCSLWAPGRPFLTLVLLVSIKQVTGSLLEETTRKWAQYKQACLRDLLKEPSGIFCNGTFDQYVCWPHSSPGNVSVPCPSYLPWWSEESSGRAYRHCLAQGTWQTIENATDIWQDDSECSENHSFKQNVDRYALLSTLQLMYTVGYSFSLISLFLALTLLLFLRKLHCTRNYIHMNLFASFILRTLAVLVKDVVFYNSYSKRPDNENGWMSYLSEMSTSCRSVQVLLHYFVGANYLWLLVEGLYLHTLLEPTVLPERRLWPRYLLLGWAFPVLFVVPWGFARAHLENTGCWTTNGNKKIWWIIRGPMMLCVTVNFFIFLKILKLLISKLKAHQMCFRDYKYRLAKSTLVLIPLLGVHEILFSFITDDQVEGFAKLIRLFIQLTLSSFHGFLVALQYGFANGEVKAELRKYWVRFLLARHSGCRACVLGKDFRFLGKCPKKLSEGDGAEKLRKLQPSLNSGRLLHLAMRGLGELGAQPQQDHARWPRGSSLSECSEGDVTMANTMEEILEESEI

Row | Molecule | Emax at 9.95 µM [1] [%] | EC50 [1] [µM] | Emax [2] [%] | Median Response Strength in positive donors (CDI) [3] | Cmax (in vivo; Cmax) [ng/mL] | half-life (in vivo; T1/2) [min] | Emax (hGCGR) [%] | Tmax (in vivo) [min] | cAMP EC50 (human GLP-2 receptor) [nM]
1 | CC(=O)NCC[C@H](NC(=O)[C@H](CO)NC(=O)[C@@H](N)Cc1c[nH]cn1)C(=O)NCC(=O)N[C@H](C(=O)N[C@@H](Cc1ccccc1)C(=O)N[C@H](C(=O)N[C@@H](CO)C(=O)N[C@@H](CC(=O)O)C(=O)N[C@@H](Cc1ccc(O)cc1)C(=O)N[C@@H](CO)C(=O)N[C@@H](CCCCN)C(=O)N[C@@H](Cc1ccc(O)cc1)C(=O)N[C@@H](CC(C)C)C(=O)N[C@@H](CC(=O)O)C(=O)NC(C)(C)C(=O)N[C@@H](CCCNC(=N)N)C(=O)N[C@@H](CCCNC(=N)N)C(=O)N[C@@H](C)C(=O)N[C@@H](CCC(N)=O)C(=O)N[C@@H](C)C(=O)N[C@@H](Cc1ccccc1)C(=O)N[C@H](C(=O)N[C@@H](CCCCN)C(=O)N[C@@H](Cc1ccncc1)C(=O)N[C@@H](CC(C)C)C(=O)N[C@@H](CC(C)C)C(=O)N[C@@H](CO)C(=O)N[C@H](C(=O)O)[C@@H](C)O)C(C)C)[C@@H](C)O)[C@@H](C)O [Example 3] | < 5 | > 9.95 | 109 ± 5 | 6.5 | 1.8 | 26.8 |  |  | 
2 | CC(C)C[C@H](NC(=O)[C@H](Cc1ccncc1)NC(=O)[C@H](CCCCN)NC(=O)[C@@H](NC(=O)[C@H](Cc1ccccc1)NC(=O)[C@H](CCC(N)=O)NC(=O)[C@H](CCC(N)=O)NC(=O)[C@H](C)NC(=O)[C@H](CCCNC(=N)N)NC(=O)[C@H](CCCNC(=N)N)NC(=O)C(C)(C)NC(=O)[C@H](CC(=O)O)NC(=O)[C@H](CC(C)C)NC(=O)[C@H](Cc1ccc(O)cc1)NC(=O)[C@H](CCCCN)NC(=O)[C@H](CO)NC(=O)[C@H](Cc1ccc(O)cc1)NC(=O)[C@H](CC(=O)O)NC(=O)[C@H](CO)NC(=O)[C@@H](NC(=O)[C@H](Cc1ccccc1)NC(=O)[C@@H](NC(=O)CNC(=O)[C@H](CCC(N)=O)NC(=O)[C@H](CO)NC(=O)[C@@H](N)Cc1c[nH]cn1)[C@@H](C)O)[C@@H](C)O)C(C)C)C(=O)N[C@@H](CC(C)C)C(=O)N[C@@H](CO)C(=O)N[C@H](C(=O)O)[C@@H](C)O [Example 1] (H-HSQGTFTSDYSKYLD[Aib]RRAQQFVK[4Pal]LLST-OH; N-terminus assumed) | < 5 | > 9.95 | 105 ± 2 |  |  |  | 103 ± 2 | 20 | 
3 | CC(=O)NCC[C@H](NC(=O)[C@H](CO)NC(=O)[C@@H](N)Cc1c[nH]cn1)C(=O)NCC(=O)N[C@H](C(=O)N[C@@H](Cc1ccccc1)C(=O)N[C@H](C(=O)N[C@@H](CO)C(=O)N[C@@H](CC(=O)O)C(=O)N[C@@H](Cc1ccc(O)cc1)C(=O)N[C@@H](CO)C(=O)N[C@@H](CCCCN)C(=O)N[C@@H](Cc1ccc(O)cc1)C(=O)N[C@@H](CC(C)C)C(=O)N[C@@H](CC(=O)O)C(=O)NC(C)(C)C(=O)N[C@@H](CCCNC(=N)N)C(=O)N[C@@H](CCCNC(=N)N)C(=O)N[C@@H](C)C(=O)N[C@@H](CCC(N)=O)C(=O)N[C@@H](CCC(N)=O)C(=O)N[C@@H](Cc1ccccc1)C(=O)N[C@H](C(=O)N[C@@H](CCCCN)C(=O)N[C@@H](Cc1ccncc1)C(=O)N[C@@H](CC(C)C)C(=O)N[C@@H](CC(C)C)C(=O)N[C@@H](CO)C(=O)N[C@H](C(=O)O)[C@@H](C)O)C(C)C)[C@@H](C)O)[C@@H](C)O [Example 4] (H-HS[Dab](Ac)GTFTSDYSKYLD[Aib]RRAQQFVK[4Pal]LLST-OH; N-terminus assumed) | < 5 | > 9.95 | 100 ± 5 | 6.42 |  |  | 98 ± 2 | 25 | 
4 | HADGSFSDEMNTILDNLAARDFINWLIQTKITDR-OH [GLP-2 (1-34) acid] |  |  |  |  |  |  |  |  | 0.016
